Measurements taken from article PMC10897015, “Investigation of anti-nociceptive, anti-inflammatory potential and ADMET studies of pure compounds isolated from Isodon rugosus Wall. ex Benth” (Frontiers in Pharmacology, 2024).
“And” between values parts separate entries of the source, which are not always exact repeats. Equal values may be shown once. Marks after values point to notes of the source that are not given here.

Legend:
mice = experiment: Carrageenan-induced paw edema; format: in vivo; settings: for % edema volume inhibition (mean): aspirin 10 mg/kg; for Paw edema percent inhibition, individual values / Paw edema, individual values: single animals
Method: The animals under study were divided into different groups. Prior to the experiment, the animals had only access to water. […] Additionally, the isolated compounds being tested were given 30 min before injecting 0.05 ml of 1% carrageenan into the sub-plantar region of the paw. To measure the volume changes in the paw, a digital plethysmometer was employed. Readings were taken before and after the carrageenan injection at hourly intervals over a total period of 5 h.

5-LOX = biological target: T1, 5-LOX (Glycine max, UniProt P08170); experiment: Lipoxygenase (5-LOX) inhibitory activity; format: biochemical
T1 sequence (P08170 1-839): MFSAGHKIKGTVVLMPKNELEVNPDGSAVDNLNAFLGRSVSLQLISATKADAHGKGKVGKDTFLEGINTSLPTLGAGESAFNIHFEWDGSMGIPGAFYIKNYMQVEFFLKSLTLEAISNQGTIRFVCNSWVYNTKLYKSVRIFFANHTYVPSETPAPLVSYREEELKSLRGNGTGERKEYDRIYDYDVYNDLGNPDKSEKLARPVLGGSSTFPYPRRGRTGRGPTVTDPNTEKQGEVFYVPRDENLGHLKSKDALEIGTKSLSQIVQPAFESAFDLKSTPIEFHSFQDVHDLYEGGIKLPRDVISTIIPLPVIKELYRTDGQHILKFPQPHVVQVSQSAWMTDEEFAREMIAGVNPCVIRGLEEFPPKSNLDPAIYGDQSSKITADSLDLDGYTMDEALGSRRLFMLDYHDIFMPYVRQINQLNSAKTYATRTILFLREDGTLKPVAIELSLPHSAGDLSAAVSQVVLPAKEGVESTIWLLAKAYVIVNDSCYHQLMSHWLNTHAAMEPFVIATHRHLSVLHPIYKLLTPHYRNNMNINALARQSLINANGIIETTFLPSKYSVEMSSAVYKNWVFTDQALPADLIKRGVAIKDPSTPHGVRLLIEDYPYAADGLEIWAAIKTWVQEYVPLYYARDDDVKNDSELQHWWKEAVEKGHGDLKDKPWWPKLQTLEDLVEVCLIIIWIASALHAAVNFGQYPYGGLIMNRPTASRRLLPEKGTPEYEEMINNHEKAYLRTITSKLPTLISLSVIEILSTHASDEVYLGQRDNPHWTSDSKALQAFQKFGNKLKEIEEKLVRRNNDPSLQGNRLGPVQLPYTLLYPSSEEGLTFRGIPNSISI
Method: The enzyme solution with a concentration of 10,000 U/ml was prepared. […] A solution (80 mM) of linoleic acid (substrate) was made. Likewise, a 50 mM phosphate buffer solution with a pH of 6.3 was prepared. The substrate, enzyme, and buffer were combined in equal proportions, each in a 2 ml volume. […] The inhibition percentage was determined by comparing the absorbance of the test samples with that of the positive control.

Swiss albino mice [1] = experiment: Hot plate test, involvement of adrenergic receptors; format: in vivo; settings: single animals
Method: The analgesic effects of the isolated compounds were measured using the hot plate method at a monitored temperature of 55 ± 0.2°C. The Swiss albino mice were positioned on the heated surface of the hot plate, and the period from placement to the onset of licking their hind paws or starting jump movements was noted as the response latency (thermal reactions). The test compounds were injected intraperitoneally. […] The animal models were checked for thermal reactions at various time intervals after sample administration.
The outcomes of the positive control and tested compounds were compared in animals pretreated with yohimbine. […] Additionally, clonidine at a dose of 3 μg/kg was intravenously administered. The animals were then subjected to the hot plate method, as reported before.

Swiss albino mice [2] = experiment: Acetic acid-induced writhing test; format: in vivo; settings: for % analgesic activity (writhing inhibition) / Mean writhes: dose 10 mg/kg, oral; for Mean writhes: writhes counted 5-30 min after acetic acid, 10 mg/kg
Method: An anti-nociceptive assessment was performed on Swiss albino mice of both sexes, sourced from the National Institute of Health, Islamabad, Pakistan. […] Mice of either sex were divided into different groups, with five mice in each group. The test samples were carefully administered orally, with doses of 250, 500, 1000, and 2000 mg/kg.
I. rugosus was evaluated for its analgesic potential through an acetic acid-induced writhing test. Oral administration of the test samples was carried out using specified doses. After 30 min of interval, 10 ml/kg of acetic acid (0.6%) was injected into the mice. Group I served as the control and received 0.5% Tween-80 (3 ml/kg), group II received diclofenac sodium (10 mg/kg), and groups III and IV received test compounds. The count of writhes was recorded between 5 and 30 min, following the i/p injection of acetic acid ([Franzotti et al., 2000]).

SMILES: CC(=O)Oc1ccccc1C(=O)O [Aspirin, aspirin, reference compound]
- % edema volume inhibition (mean) (mice; 1st hour after carrageenan): 51.772%
- % edema volume inhibition (mean) (mice; 1st hour after carrageenan, listed as aspirin): 51.77 ± 0.10%
- % edema volume inhibition (mean) (mice; 2nd hour after carrageenan): 56.106%
- % edema volume inhibition (mean) (mice; 3rd hour after carrageenan): 57.334%
- % edema volume inhibition (mean) (mice; 4th hour after carrageenan): 60.956%
- % edema volume inhibition (mean) (mice; 5th hour after carrageenan): 57.694%
- % edema volume inhibition (mean) (mice; 5th hour after carrageenan, listed as aspirin): 57.77 ± 0.40%
- Paw edema percent inhibition, individual values (mice; hour 1): 52.34% and 51.04% and 52.35% and 51.83% and 51.3%
- Paw edema, individual values (mice; hour 1): 0.362 and 0.375 and 0.365 and 0.369 and 0.373
- Paw edema percent inhibition, individual values (mice; hour 2): 59.13% and 52.65% and 58.06% and 56.7% and 53.99%
- Paw edema, individual values (mice; hour 2): 0.302 and 0.349 and 0.31 and 0.32 and 0.34
- Paw edema percent inhibition, individual values (mice; hour 3): 59.52% and 56.85% and 58.59% and 57.12% and 54.59%
- Paw edema, individual values (mice; hour 3): 0.304 and 0.322 and 0.311 and 0.341
- Paw edema percent inhibition, individual values (mice; hour 4): 63.3% and 60.42% and 61.07% and 60.88% and 59.11%
- Paw edema, individual values (mice; hour 4): 0.275 and 0.301 and 0.297 and 0.312
- Paw edema percent inhibition, individual values (mice; hour 5): 59.25% and 55.95% and 53.49% and 59.23% and 60.55%
- Paw edema, individual values (mice; hour 5): 0.298 and 0.322 and 0.34 and 0.289

SMILES: CC(c1cc2ccccc2s1)N(O)C(N)=O (stereo not shown) [Zileuton, reference compound]
- inhibition at 62.5 µg/mL (5-LOX; read-out: % inhibition 5-LOX (mean ± SEM), 62.5 µg/ml): 79.8 ± 0.37%
- inhibition at 250 µg/mL (5-LOX; read-out: % inhibition 5-LOX (mean ± SEM), 250 µg/ml): 88.98 ± 0.85%
- inhibition at 500 µg/mL (5-LOX; read-out: % inhibition 5-LOX (mean ± SEM), 500 µg/ml): 92.22 ± 0.11%
- inhibition at 1000 µg/mL (5-LOX; read-out: % inhibition 5-LOX (mean ± SEM), 1000 µg/ml): 95.2 ± 0.15%

SMILES: Clc1cccc(Cl)c1N=C1NCCN1 [Clonidine, reference compound]
- Hot plate analysis (adrenergic), individual values (Swiss albino mice [1]; 30 Minutes): 9.56 and 8.88 and 10.88
- Hot plate analysis (adrenergic), individual values (Swiss albino mice [1]; 45 Minutes): 10.6 and 9.32 and 10.99
- Hot plate analysis (adrenergic), individual values (Swiss albino mice [1]; 15 minutes): 9.26 and 10.12 and 10.98
- Hot plate analysis (adrenergic), individual values (Swiss albino mice [1]; 60 minutes): 8.2 and 10.01 and 7.59
- Hot plate analysis (adrenergic), individual values (Swiss albino mice [1]; 90 minutes): 8.4 and 10.26 and 9.3

SMILES: O=C(O)Cc1ccccc1Nc1c(Cl)cccc1Cl [Positive control, diclofenac sodium, reference compound]
- Writhes, individual values (Swiss albino mice [2]; 10mg, single animals): 16.1 and 17.8 and 15.6
- % analgesic activity (writhing inhibition) (Swiss albino mice [2]): 73.02^*** %
- % analgesic activity (writhing inhibition) (Swiss albino mice [2]; listed as positive control): 73.02%
- Mean writhes (Swiss albino mice [2]): 16.5 ± 0.76
- Mean writhes (Swiss albino mice [2]; listed as Positive Control): 16.5
